Measurements as given in ChEMBL document CHEMBL4342465, “Lead Optimization and Avoidance of Reactive Metabolite Leading to PCO371, a Potent, Selective, and Orally Available Human Parathyroid Hormone Receptor 1 (hPTHR1) Agonist” (J Med Chem, 2020).
Activity calls are given as the source filed them. The rule behind the calls is not given here.

Assays:
[1] = Clearance in human liver microsomes at 1 uM measured after 30 mins in presence of NADPH by LC-MS/MS analysis; assay type: ADME, Microsome; conditions: read-out: CLH
[2] = system: Rattus norvegicus; assay: Anti-hypoparathyroidism activity in po dosed TPTX Crl:CD(SD) rat assessed as time required to show maximum increase in serum calcium level by o-CPC method; assay type: functional
[3] = system: Rattus norvegicus; assay: Anti-hypoparathyroidism activity in po dosed TPTX Crl:CD(SD) rat assessed as time required to show minimum decrease in serum phosphate level by xanthine oxidase based method; assay type: functional
[4] = AUC (infinity) in rat at 2 mg/kg, iv by LC-MS/MS analysis; assay type: ADME, organism-based; set-up: dose 2 mg/kg, route intravenous, time infinity; conditions: in vivo
[5] = system: Rattus norvegicus; assay: Anti-hypoparathyroidism activity in po dosed TPTX Crl:CD(SD) rat assessed as decrease in serum phosphate level measured up to 24 hrs by xanthine oxidase based method; assay type: functional, organism-based
[6] = system: Rattus norvegicus; assay: Anti-hypoparathyroidism activity in po dosed TPTX Crl:CD(SD) rat assessed as increase in serum calcium level by measuring serum calcium level at 30 mg/kg, po administered as single dose measured after 24 hrs by o-CPC method; assay type: functional
[7] = system: Rattus norvegicus; assay: Anti-hypoparathyroidism activity in po dosed TPTX Crl:CD(SD) rat assessed as increase in serum calcium level measured up to 24 hrs by o-CPC method; assay type: functional, organism-based
[8] = Clearance in rat at 2 mg/kg, iv by LC-MS/MS analysis; assay type: ADME, organism-based; conditions: in vivo
[9] = Volume of distribution at steady state in rat at 2 mg/kg, iv by LC-MS/MS analysis; assay type: ADME, organism-based; conditions: in vivo, read-out: Vdss
[10] = biological target: T1, Parathyroid hormone/parathyroid hormone-related peptide receptor (Homo sapiens) (UniProt Q03431); conditions: LLC-PK1
T1 sequence (whole entry): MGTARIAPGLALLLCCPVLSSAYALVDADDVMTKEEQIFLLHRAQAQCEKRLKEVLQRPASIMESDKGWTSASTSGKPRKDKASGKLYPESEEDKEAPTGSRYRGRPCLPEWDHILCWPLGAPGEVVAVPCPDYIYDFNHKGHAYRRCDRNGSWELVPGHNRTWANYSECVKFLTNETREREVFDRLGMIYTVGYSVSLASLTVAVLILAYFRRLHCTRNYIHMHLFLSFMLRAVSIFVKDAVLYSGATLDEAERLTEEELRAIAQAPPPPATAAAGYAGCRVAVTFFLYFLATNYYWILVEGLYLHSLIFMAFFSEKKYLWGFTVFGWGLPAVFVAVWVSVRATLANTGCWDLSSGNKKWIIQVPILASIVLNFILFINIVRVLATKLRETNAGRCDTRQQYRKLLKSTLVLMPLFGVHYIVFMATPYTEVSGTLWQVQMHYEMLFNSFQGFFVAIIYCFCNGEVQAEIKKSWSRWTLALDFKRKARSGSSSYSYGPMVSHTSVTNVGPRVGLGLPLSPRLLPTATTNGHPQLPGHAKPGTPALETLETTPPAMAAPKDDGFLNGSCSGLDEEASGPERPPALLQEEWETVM

[11] = Half life in rat at 2 mg/kg, iv by LC-MS/MS analysis; assay type: ADME, organism-based; conditions: in vivo
[12] = biological target: T2, Parathyroid hormone/parathyroid hormone-related peptide receptor (Homo sapiens, UniProt Q03431); assay: Agonist activity at recombinant human PTHR1 expressed in pig LLC-PK1 cells assessed as increase in cAMP production measured after 20 mins by EIA; assay type: functional, cell-based
T2 sequence (Q03431 whole entry): T1 sequence (whole entry)

[13] = Drug metabolism in human liver microsomes assessed as hydrolysis by measuring compound 19 formation at 1 uM measured after 30 mins in presence of NADPH by LC-MS/MS analysis; assay type: ADME, Microsome; conditions: 0.5 h
[14] = Drug metabolism in human liver microsomes assessed as compound 17 formation at 1 uM measured after 30 mins in presence of NADPH by LC-MS/MS analysis; assay type: ADME, Microsome; conditions: 0.5 h
[15] = Drug metabolism in human liver microsomes assessed as oxidation by measuring compound 18 formation at 1 uM measured after 30 mins in presence of NADPH by LC-MS/MS analysis; assay type: ADME, Microsome; conditions: 0.5 h
[16] = system: Rattus norvegicus; assay: Anti-hypoparathyroidism activity in sc dosed TPTX Crl:CD(SD) rat assessed as increase in serum calcium level measured up to 24 hrs by o-CPC method; assay type: functional, organism-based

## Cc1cc(N(C)C(N)=O)cc(C)c1CCS(=O)(=O)N1CCC2(CC1)N=C(c1ccc(OC(F)(F)F)cc1)NC2=O
[1]
  microsomal CLint at 1 µM: 48 µL/min/mg

## Cc1cc(N2C(=O)NC(=O)C2(C)C)cc(C)c1CCS(=O)(=O)N1CCC2(CC1)N=C(c1ccc(OC(F)(F)F)cc1)NC2=O [PCO-371]
[1]
  microsomal CLint at 1 µM: 30 µL/min/mg
[2]
  Time: 10 h
[3]
  Time: 10 h
[4]
  AUC(0-inf): 1100 ng·h/mL
[5]
  Activity: Dose-dependent effect
[6]
  Activity: 8.8 to 10.4 mg/dL
[7]
  Activity: Dose-dependent effect
[8]
  clearance: 30.5 mL/min/kg
[9]
  Vd: 3.04 L/kg
[10]
  EC20: 1.1 µM
[11]
  half-life: 78 min

## Cc1cc(N2CC(=O)NC2=O)cc(C)c1CCS(=O)(=O)N1CCC2(CC1)N=C(c1ccc(OC(F)(F)F)cc1)NC2=O
[12]
  EC50: > 100 µM
[10]
  EC20: > 100 µM

## CC[C@H]1CC[C@H](C2=NC3(CCN(S(=O)(=O)CCc4c(C)cc(N(C)C(N)=O)cc4C)CC3)C(=O)N2)CC1
[1]
  microsomal CLint at 1 µM: 170 µL/min/mg
[12]
  EC50: 33 µM
[10]
  EC20: 2.2 µM

## Cc1cc(N)cc(CO)c1C(O)CS(=O)(=O)N1CCC2(CC1)N=C([C@H]1CC[C@H](C)CC1)NC2=O (some centres undefined)
[13]
  Drug metabolism: Metabolite_Detected

## Cc1cc(N2C(=O)NC(=O)C23CCCC3)cc(C)c1CCS(=O)(=O)N1CCC2(CC1)N=C(c1ccc(OC(F)(F)F)cc1)NC2=O
[1]
  microsomal CLint at 1 µM: 35 µL/min/mg

## Cc1cc(N2C(=O)N(C)C(=O)C2(C)C)cc(C)c1CCS(=O)(=O)N1CCC2(CC1)N=C(c1ccc(OC(F)(F)F)cc1)NC2=O
[1]
  microsomal CLint at 1 µM: 330 µL/min/mg

## Cc1cc(N(C)C(N)=O)cc(C)c1CCS(=O)(=O)N1CCC2(CC1)N=C([C@H]1CC[C@H](C)CC1)NC2=O
[5]
  Activity: Dose-dependent effect
[14]
  Drug metabolism: Metabolite_Detected
[7]
  Activity: Dose-dependent effect

## Cc1cc(N2C(=O)CNC2=O)cc(C)c1CCS(=O)(=O)N1CCC2(CC1)N=C(c1ccc(OC(F)(F)F)cc1)NC2=O
[1]
  microsomal CLint at 1 µM: 110 µL/min/mg

## Cc1cc(N)cc(C)c1CCS(=O)(=O)N1CCC2(CC1)N=C([C@H]1CC[C@H](C)CC1)NC2=O
[15]
  Drug metabolism: Metabolite_Detected

## CCC1(CC)C(=O)NC(=O)N1c1cc(C)c(CCS(=O)(=O)N2CCC3(CC2)N=C(c2ccc(OC(F)(F)F)cc2)NC3=O)c(C)c1
[1]
  microsomal CLint at 1 µM: 29 µL/min/mg
[12]
  EC50: > 100 µM
[10]
  EC20: 7.4 µM

## Cc1cc(N2C(=O)NC(=O)C2C)cc(C)c1CCS(=O)(=O)N1CCC2(CC1)N=C(c1ccc(OC(F)(F)F)cc1)NC2=O (centres undefined)
[1]
  microsomal CLint at 1 µM: 71 µL/min/mg

## CC[C@H](C)[C@H](NC(=O)[C@H](CCC(=O)O)NC(=O)[C@H](CO)NC(=O)[C@@H](NC(=O)[C@@H](N)CO)C(C)C)C(=O)N[C@@H](CCC(N)=O)C(=O)N[C@@H](CC(C)C)C(=O)N[C@@H](CCSC)C(=O)NC(Cc1cnc[nH]1)C(=O)N[C@@H](CC(N)=O)C(=O)N[C@@H](CC(C)C)C(=O)NCC(=O)N[C@@H](CCCCN)C(=O)N[C@@H](Cc1cnc[nH]1)C(=O)N[C@@H](CC(C)C)C(=O)N[C@@H](CC(N)=O)C(=O)N[C@@H](CO)C(=O)NC(CCSC)C(=O)N[C@@H](CCC(=O)O)C(=O)N[C@@H](CCCNC(=N)N)C(=O)N[C@H](C(=O)N[C@@H](CCC(=O)O)C(=O)N[C@@H](Cc1c[nH]c2ccccc12)C(=O)N[C@@H](CC(C)C)C(=O)N[C@@H](CCCNC(=N)N)C(=O)N[C@@H](CCCCN)C(=O)N[C@@H](CCCCN)C(=O)N[C@@H](CC(C)C)C(=O)N[C@@H](CCC(N)=O)C(=O)N[C@@H](CC(=O)O)C(=O)N[C@H](C(=O)N[C@@H](Cc1cnc[nH]1)C(=O)N[C@@H](CC(N)=O)C(=O)N[C@@H](Cc1ccccc1)C(=O)O)C(C)C)C(C)C (some centres undefined)
[16]
  Activity: Active
[10]
  EC20: 0.0006 µM

## Cc1cc(N2C(=O)CNC2=O)cc(C)c1CCS(=O)(=O)N1CCC2(CC1)N=C([C@H]1CC[C@H](C)CC1)NC2=O
[1]
  microsomal CLint at 1 µM: 53 µL/min/mg
[12]
  EC50: 32 µM
[10]
  EC20: 6 µM
